Experimental findings from patent US10533010B2, “Substituted indole Mcl-1 inhibitors” (Vanderbilt University, priority 2014, dated 2020) are described below.

Chain of recombinant Mcl-1 (residues 172-327) (Q07820 172-327): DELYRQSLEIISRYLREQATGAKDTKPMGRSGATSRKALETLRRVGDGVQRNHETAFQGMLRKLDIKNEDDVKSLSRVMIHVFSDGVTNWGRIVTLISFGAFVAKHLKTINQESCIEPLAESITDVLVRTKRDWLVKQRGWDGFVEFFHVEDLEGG

One assay concerns the target recombinant Mcl-1 (residues 172-327) (Homo sapiens (Human), UniProt Q07820). Put plainly: Fluorescence polarization anisotropy competition assay (FITC-Bak or FITC-Bim BH3 peptide) with Mcl-1. It counts as binding. The conditions noted are these: Table 2; Ki bins given in nM; FITC-Bak or FITC-Bim peptide competition; Ki converted from IC50; read-out: Ki for Inhibition of Mcl-1. A general note: In fluorescence polarisation assays a small probe gives low polarisation when free and higher when bound to something large.
Turning to `Cc1cc(OCCCc2c(C(=O)Nc3ccc(C(=O)O)c(N4CCN(C)CC4)c3)[nH]c3c(-c4c(C)nn(C)c4C)c(Cl)ccc23)cc(C)c1Cl` [I-90, 4-(6-chloro-3-(3-(4-chloro-3,5-dimethylphenoxy)propyl)-7-(1,3,5-trimethyl-1H-pyrazol-4-yl)-1H-indole-2-carboxamido)-2-(4-methylpiperazin-1-yl)benzoic acid], the Ki is < 50 nM.

Turning to `Cc1cc(OCCCc2c3n(c4c(-c5c(C)nn(C)c5C)c(Cl)ccc24)CCCN(c2cc(C(=O)O)cc(C(F)(F)F)c2)C3=O)cc(C)c1Cl` [I-222, 3-(8-chloro-11-(3-(4-chloro-3,5-dimethylphenoxy)propyl)-1-oxo-7-(1,3,5-trimethyl-1H-pyrazol-4-yl)-4,5-dihydro-1H-[1,4]diazepino[1,2-a]indol-2(3H)-yl)-5-(trifluoromethyl)benzoic acid], the Ki was < 50 nM.

Take `Cc1cc(OCCCc2c3n(c4c(-c5c(C)nn(C)c5C)c(Cl)ccc24)[C@H](C)CN(Cc2ccc(C(=O)O)o2)C3=O)cc(C)c1Cl` [I-152, (R)-5-((7-chloro-10-(3-(4-chloro-3,5-dimethylphenoxy)propyl)-4-methyl-1-oxo-6-(1,3,5-trimethyl-1H-pyrazol-4-yl)-3,4-dihydropyrazino[1,2-a]indol-2(1H)-yl)methyl)furan-2-carboxylic acid]: the Ki was < 50 nM.

For the compound `Cc1ccc(N2CCCn3c(c(CCCOc4cc(C)c(Cl)c(C)c4)c4ccc(Cl)c(-c5c(C)nn(C)c5C)c43)C2=O)cc1C(=O)O` [I-98, 5-(8-chloro-11-(3-(4-chloro-3,5-dimethylphenoxy)propyl)-1-oxo-7-(1,3,5-trimethyl-1H-pyrazol-4-yl)-4,5-dihydro-1H-[1,4]diazepino[1,2-a]indol-2(3H)-yl)-2-methylbenzoic acid], the Ki is < 50 nM.

With `Cc1cc(OCCCc2c3n(c4c(-c5c(C)nn(C)c5C)c(Cl)ccc24)CCCN(c2cc(C(=O)O)c4ccn(Cc5cccnc5)c4c2)C3=O)cc(C)c1Cl` [I-241, 6-(8-chloro-11-(3-(4-chloro-3,5-dimethylphenoxy)propyl)-1-oxo-7-(1,3,5-trimethyl-1H-pyrazol-4-yl)-4,5-dihydro-1H-[1,4]diazepino[1,2-a]indol-2(3H)-yl)-1-(pyridin-3-ylmethyl)-1H-indole-4-carboxylic acid], the Ki was < 50 nM.

Turning to `Cc1cc(OCCCc2c3n(c4c(-c5c(C)nn(C)c5C)c(Cl)ccc24)CCCN(Cc2cc(OCCCC(C)C)cc(C(=O)O)c2)C3=O)cc(C)c1Cl` [I-301, 3-((8-chloro-11-(3-(4-chloro-3,5-dimethylphenoxy)propyl)-1-oxo-7-(1,3,5-trimethyl-1H-pyrazol-4-yl)-4,5-dihydro-1H-[1,4]diazepino[1,2-a]indol-2(3H)-yl)methyl)-5-((4-methylpentyl)oxy)benzoic acid], the Ki was < 50 nM.

As to `Cc1cc(OCCCc2c(C(=O)N(C)c3cccc(C(=O)O)c3)[nH]c3c(-c4c(C)nn(C)c4C)cccc23)cc(C)c1Cl` [I-197, 3-(3-(3-(4-chloro-3,5-dimethylphenoxy)propyl)-N-methyl-7-(1,3,5-trimethyl-1H-pyrazol-4-yl)-1H-indole-2-carboxamido)benzoic acid], the Ki was < 50 nM.

Consider `Cc1cc(OCCCc2c3n(c4c(-c5c(C)nn(C)c5C)c(Cl)ccc24)CCCN(C[C@H]2CC[C@H](C(=O)O)CC2)C3=O)cc(C)c1Cl` [I-371, (1r,4r)-4-((8-chloro-11-(3-(4-chloro-3,5-dimethylphenoxy)propyl)-1-oxo-7-(1,3,5-trimethyl-1H-pyrazol-4-yl)-4,5-dihydro-1H-[1,4]diazepino[1,2-a]indol-2(3H)-yl)methyl)cyclohexane-1-carboxylic acid], for which the Ki was < 50 nM.

As to `Cc1cc(OCCCc2c3n(c4c(-c5c(C)nn(C)c5C)c(Cl)ccc24)C[C@@H](C)N(Cc2ccc(C(=O)O)cn2)C3=O)cc(C)c1Cl` [I-122, (R)-6-((7-chloro-10-(3-(4-chloro-3,5-dimethylphenoxy)propyl)-3-methyl-1-oxo-6-(1,3,5-trimethyl-1H-pyrazol-4-yl)-3,4-dihydropyrazino[1,2-a]indol-2(1H)-yl)methyl)nicotinic acid], the Ki is < 50 nM.

Take `Cc1cc(OCCCc2c(C(=O)N[C@@H]3CCN(C(=O)C(=O)O)C3)[nH]c3c(-c4c(C)nn(C)c4C)c(Cl)ccc23)cc(C)c1Cl` [I-326, (R)-2-(3-(6-chloro-3-(3-(4-chloro-3,5-dimethylphenoxy)propyl)-7-(1,3,5-trimethyl-1H-pyrazol-4-yl)-1H-indole-2-carboxamido)pyrrolidin-1-yl)-2-oxoacetic acid]: the Ki was < 50 nM.

Turning to `Cc1cc(OCCCc2c3n(c4c(-c5c(C)nn(C)c5C)c(Cl)ccc24)CCCN(c2cc(Cn4ccnc4)cc(C(=O)O)c2)C3=O)cc(C)c1Cl` [I-229, 3-((1H-imidazol-1-yl)methyl)-5-(8-chloro-11-(3-(4-chloro-3,5-dimethylphenoxy)propyl)-1-oxo-7-(1,3,5-trimethyl-1H-pyrazol-4-yl)-4,5-dihydro-1H-[1,4]diazepino[1,2-a]indol-2(3H)-yl)benzoic acid], the Ki is < 50 nM.

As to `Cc1cc(OCCCc2c3n(c4c(-c5c(C)nn(C)c5C)c(Cl)ccc24)[C@@H](C)CN(c2ccc(C(=O)O)cc2)C3=O)cc(C)c1Cl` [I-166, (S)-4-(7-chloro-10-(3-(4-chloro-3,5-dimethylphenoxy)propyl)-4-methyl-1-oxo-6-(1,3,5-trimethyl-1H-pyrazol-4-yl)-3,4-dihydropyrazino[1,2-a]indol-2(1H)-yl)benzoic acid], the inhibition constant Ki is < 50 nM.

With `Cc1cc(OCCCc2c3n(c4c(-c5c(C)nn(C)c5C)c(Cl)ccc24)C[C@H](C)N(Cc2ccc(C(=O)O)o2)C3=O)cc(C)c1Cl` [I-138, (S)-5-((7-chloro-10-(3-(4-chloro-3,5-dimethylphenoxy)propyl)-3-methyl-1-oxo-6-(1,3,5-trimethyl-1H-pyrazol-4-yl)-3,4-dihydropyrazino[1,2-a]indol-2(1H)-yl)methyl)furan-2-carboxylic acid], the inhibition constant Ki was < 50 nM.

As to `Cc1cc(OCCCc2c3n(c4c(-c5c(C)nn(C)c5C)c(Cl)ccc24)[C@@H](C)CN(Cc2ccc(C(=O)O)cc2)C3=O)cc(C)c1Cl` [I-150, (S)-4-((7-chloro-10-(3-(4-chloro-3,5-dimethylphenoxy)propyl)-4-methyl-1-oxo-6-(1,3,5-trimethyl-1H-pyrazol-4-yl)-3,4-dihydropyrazino[1,2-a]indol-2(1H)-yl)methyl)benzoic acid], the Ki was < 50 nM.

As to `Cc1cc(OCCCc2c3n(c4c(-c5c(C)nn(C)c5C)c(Cl)ccc24)CCCN(Cc2cc(OCCC(C)C)cc(C(=O)O)c2)C3=O)cc(C)c1Cl` [I-300, 3-((8-chloro-11-(3-(4-chloro-3,5-dimethylphenoxy)propyl)-1-oxo-7-(1,3,5-trimethyl-1H-pyrazol-4-yl)-4,5-dihydro-1H-[1,4]diazepino[1,2-a]indol-2(3H)-yl)methyl)-5-(isopentyloxy)benzoic acid], the inhibition constant (Ki) was < 50 nM.

Consider `Cc1cc(OCCCc2c3n(c4c(-c5c(C)nn(C)c5C)c(Cl)ccc24)CCCN(c2ccc(C(=O)O)cc2F)C3=O)cc(C)c1Cl` [I-95, 4-(8-chloro-11-(3-(4-chloro-3,5-dimethylphenoxy)propyl)-1-oxo-7-(1,3,5-trimethyl-1H-pyrazol-4-yl)-4,5-dihydro-1H-[1,4]diazepino[1,2-a]indol-2(3H)-yl)-3-fluorobenzoic acid], for which the Ki was < 50 nM.

On to `Cc1cc(OCCCc2c(C(=O)Nc3cc(C(=O)O)cc(N4CCN(C)CC4)c3)[nH]c3c(-c4c(C)nn(C)c4C)c(Cl)ccc23)cc(C)c1Cl` [I-207, 3-(6-chloro-3-(3-(4-chloro-3,5-dimethylphenoxy)propyl)-7-(1,3,5-trimethyl-1H-pyrazol-4-yl)-1H-indole-2-carboxamido)-5-(4-methylpiperazin-1-yl)benzoic acid], for which the Ki is < 50 nM.

As for `Cc1nn(C)c(C)c1-c1cccc2c(CCCOc3cccc4ccccc34)c(C(=O)N(C)c3cccc(C(=O)O)c3)[nH]c12` [I-195, 3-(N-methyl-3-(3-(naphthalen-1-yloxy)propyl)-7-(1,3,5-trimethyl-1H-pyrazol-4-yl)-1H-indole-2-carboxamido)benzoic acid], the Ki was < 50 nM.

In the case of `Cc1cc(OCCCc2c3n(c4c(-c5c(C)nn(C)c5C)c(Cl)ccc24)CCCN(c2ccc(C(=O)O)c(C(F)(F)F)c2)C3=O)cc(C)c1Cl` [I-93, 4-(8-chloro-11-(3-(4-chloro-3,5-dimethylphenoxy)propyl)-1-oxo-7-(1,3,5-trimethyl-1H-pyrazol-4-yl)-4,5-dihydro-1H-[1,4]diazepino[1,2-a]indol-2(3H)-yl)-2-(trifluoromethyl)benzoic acid], the Ki is < 50 nM.

For the compound `Cc1cc(OCCCc2c3n(c4c(-c5c(C)nn(C)c5C)c(Cl)ccc24)CCN(c2cc(NC4CCOCC4)cc(C(=O)O)c2)C3=O)cc(C)c1Cl` [I-214, 3-(7-chloro-10-(3-(4-chloro-3,5-dimethylphenoxy)propyl)-1-oxo-6-(1,3,5-trimethyl-1H-pyrazol-4-yl)-3,4-dihydropyrazino[1,2-a]indol-2(1H)-yl)-5-((tetrahydro-2H-pyran-4-yl)amino)benzoic acid], the Ki was < 50 nM.

`Cc1cc(OCCCc2c3n(c4c(-c5c(C)nn(C)c5C)c(Cl)ccc24)C(C)CN(Cc2cccc(C(=O)O)c2)C3=O)cc(C)c1Cl` (centres unmarked) [I-131, 3-((7-chloro-10-(3-(4-chloro-3,5-dimethylphenoxy)propyl)-4-methyl-1-oxo-6-(1,3,5-trimethyl-1H-pyrazol-4-yl)-3,4-dihydropyrazino[1,2-a]indol-2(1H)-yl)methyl)benzoic acid]: the Ki is < 50 nM.

Still in this assay, the particulars now being: Table 2; Ki bins given in μM; FITC-Bak or FITC-Bim peptide competition; Ki converted from IC50; read-out: Ki for Inhibition of Mcl-1.
As to `CCOC(=O)CCNC(=O)c1[nH]c2ccccc2c1CCCOc1cc(C)c(Cl)c(C)c1` [I-10, ethyl 3-(3-(3-(4-chloro-3,5-dimethylphenoxy)propyl)-1H-indole-2-carboxamido)propanoate], the Ki was 10000 to 50000 nM.

On to `CCOC(=O)c1ccc(CNC(=O)c2[nH]c3c(-c4c(C)nn(C)c4C)cccc3c2CCCOc2cc(C)c(Cl)c(C)c2)o1` [I-266, ethyl 5-((3-(3-(4-chloro-3,5-dimethylphenoxy)propyl)-7-(1,3,5-trimethyl-1H-pyrazol-4-yl)-1H-indole-2-carboxamido)methyl)furan-2-carboxylate], for which the inhibitory constant (Ki) is 10000 to 50000 nM.

Broadly, the Ki is the equilibrium dissociation constant of an inhibitor or competing ligand from its target.
